The target of assay [1] is GST-PPARG-LBD (Homo sapiens (Human), UniProt P37231). The assay can be described thus: Lanthascreen PPARG competitive binding assay (Invitrogen, TR-FRET). The conditions noted are these: Lanthascreen competitive binding; NA = not active; inc = incomplete curve; read-out: IC50 (nM) Lantha. On the procedure:
Lanthascreen PPARG Competitive Binding Assay (Invitrogen)
The assay was performed according to manufacturer protocol. A mixture of […], 5 nM Tb-GST-antibody, 5 nM Fluormone Pan-PPAR Green, and serial dilutions of the experimental compound, beginning at 10 μM downwards, was added to wells of black 384-well low-volume plates (Greiner) to a total volume of 18 μL. All dilutions were made in TR-FRET assay buffer C. DMSO at 2% final concentration was used as a no-ligand control. Experiment was performed in triplicate, and incubated for 2 hours in the dark prior to assay read in Perkin Elmer ViewLux ultra HTS microplate reader. FRET signal was measured by excitation at 340 nm and emission at 520 nm for fluorescein and 490 nm for terbium. Fold change over DMSO was calculated using GraphPad Prism Software (La Jolla, Calif.) by calculating 520 nm/490 nm ratio. Graphs were plotted as fold change of FRET signal for compound treatment over DMSO-only control.

Assay [2] addresses Gal-4-PPAR (human PPAR LBD fused to GAL4 DNA-binding domain) (Homo sapiens (Human), UniProt P37231). Nature of the assay: GAL4-PPARG LBD / UAS-luciferase transactivation assay in HEK 293T cells. It is filed as cell-based. The conditions noted are these: for EC50: GAL4 transactivation, HEK 293T cells, NA = not active, read-out: EC50 (nM) GAL4; for activation at 10 µM: HEK-293T, 18 h, read-out: % transactivation at 10 μM (GAL4).

Some results are limits rather than exact numbers.

Gal-4-PPAR (human PPAR LBD fused to GAL4 DNA-binding domain), sequence (P37231 238-503): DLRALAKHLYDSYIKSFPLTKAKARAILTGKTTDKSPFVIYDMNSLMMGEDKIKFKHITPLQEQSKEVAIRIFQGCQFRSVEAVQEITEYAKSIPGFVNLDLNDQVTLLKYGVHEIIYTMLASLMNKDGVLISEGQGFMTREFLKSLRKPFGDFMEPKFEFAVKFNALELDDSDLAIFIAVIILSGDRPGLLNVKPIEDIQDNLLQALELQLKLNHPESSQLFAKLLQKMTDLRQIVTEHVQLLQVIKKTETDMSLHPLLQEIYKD
GST-PPARG-LBD, sequence (P37231 238-503): as above

For `C[C@H](NC(=O)c1ccc2c(ccn2Cc2ccc(-c3ccccc3)cc2)c1)c1ccc([N+](=O)[O-])cc1` [Example 38, (S)-1-([1,1′-Biphenyl]-4-ylmethyl)-N-(1-(4-nitrophenyl)ethyl)-1H-indole-5-carboxamide], the IC50 in assay [1] is > 1000 nM. On the same count and under the same terms, to `C[C@H](NC(=O)c1ccc2c(ccn2Cc2ccc(-c3ccccc3O)cc2)c1)c1ccc([N+](=O)[O-])cc1` [Example 40, (S)-1-((2′-Hydroxy-[1,1′-biphenyl]-4-yl)methyl)-N-(1-(4-nitrophenyl)ethyl)-1H-indole-5-carboxamide] belongs > 1000 nM; to `C[C@H](NC(=O)c1ccc2c(ccn2Cc2ccc(-c3ccc(S(C)(=O)=O)cc3)cc2)c1)c1ccc([N+](=O)[O-])cc1` [Example 50, (S)-1-((4′-(Methylsulfonyl)-[1,1′-biphenyl]-4-yl)methyl)-N-(1-(4-nitrophenyl)ethyl)-1H-indole-5-carboxamide], > 1000 nM. On the same count and under the same terms, to `CSc1ccc(-c2ccc(Cn3ccc4cc(C(=O)N[C@@H](C)c5ccc([N+](=O)[O-])cc5)ccc43)cc2)cc1` [Example 51, (S)-1-((4′-(Methylthio)-[1,1′-biphenyl]-4-yl)methyl)-N-(1-(4-nitrophenyl)ethyl)-1H-indole-5-carboxamide] belongs > 1000 nM; to `C[C@H](NC(=O)c1ccc2c(ccn2Cc2ccc(-c3cccc(N)c3)cc2)c1)c1ccc([N+](=O)[O-])cc1` [Example 52, (S)-1-((3′-Amino-[1,1′-biphenyl]-4-yl)methyl)-N-(1-(4-nitrophenyl)ethyl)-1H-indole-5-carboxamide], > 1000 nM; to `C[C@H](NC(=O)c1ccc2c(ccn2Cc2ccc(-c3cccc(CN)c3)cc2)c1)c1ccc([N+](=O)[O-])cc1` [Example 53, (S)-1-((3′-(Aminomethyl)-[1,1′-biphenyl]-4-yl)methyl)-N-(1-(4-nitrophenyl)ethyl)-1H-indole-5-carboxamide], > 1000 nM. Still for that read-out and setting: to `C[C@H](NC(=O)c1ccc2c(ccn2Cc2ccc(-c3ccccc3CO)cc2)c1)c1ccc([N+](=O)[O-])cc1` [Example 54, (S)-1-((2′-(Hydroxymethyl)-[1,1′-biphenyl]-4-yl)methyl)-N-(1-(4-nitrophenyl)ethyl)-1H-indole-5-carboxamide] belongs > 1000 nM; to `C[C@H](NC(=O)c1ccc2c(ccn2Cc2ccc(-c3ccccc3C(=O)OC(C)(C)C)cc2)c1)c1ccc([N+](=O)[O-])cc1` [Example 55, (S)-tert-Butyl 4′-((5-((1-(4-nitrophenyl)ethyl)carbamoyl)-1H-indol-1-yl)methyl)-[1,1′-biphenyl]-2-carboxylate], > 1000 nM. `Cc1ccc(-c2ccc(Cn3ccc4cc(C(=O)N[C@@H](C)c5ccc([N+](=O)[O-])cc5)ccc43)cc2)cc1` [Example 57, (S)-1-((4′-Methyl-[1,1′-biphenyl]-4-yl)methyl)-N-(1-(4-nitrophenyl)ethyl)-1H-indole-5-carboxamide]: the IC50 in assay [1] was > 1000 nM. The same measure, in the same setting: next, `C[C@H](NC(=O)c1ccc2c(ccn2Cc2ccc(-c3cccc(Cl)c3)cc2)c1)c1ccc([N+](=O)[O-])cc1` [Example 58, (S)-1-((3′-Chloro-[1,1′-biphenyl]-4-yl)methyl)-N-(1-(4-nitrophenyl)ethyl)-1H-indole-5-carboxamide]: > 1000 nM. As to `C[C@H](NC(=O)c1ccc2c(ccn2Cc2ccc(-c3ccc(C(=O)O)cc3)cc2)c1)c1ccc([N+](=O)[O-])cc1` [Example 59, (S)-4′-((5-((1-(4-Nitrophenyl)ethyl)carbamoyl)-1H-indol-1-yl)methyl)-[1,1′-biphenyl]-4-carboxylic acid], the IC50 in assay [1] was > 1000 nM. Still for that read-out and setting: to `C[C@H](NC(=O)c1ccc2c(ccn2Cc2ccc(-c3cccc(C(=O)O)c3)cc2)c1)c1ccc([N+](=O)[O-])cc1` [Example 60, (S)-4′-((5-((1-(4-Nitrophenyl)ethyl)carbamoyl)-1H-indol-1-yl)methyl)-[1,1′-biphenyl]-3-carboxylic acid] belongs > 1000 nM; to `C[C@H](NC(=O)c1ccc2c(ccn2Cc2ccc(-c3ccccc3C(=O)O)cc2)c1)c1ccc([N+](=O)[O-])cc1` [Example 61, (S)-4′-((5-((1-(4-Nitrophenyl)ethyl)carbamoyl)-1H-indol-1-yl)methyl)-[1,1′-biphenyl]-2-carboxylic acid], 646 nM.

Consider `CCC(NC(=O)c1ccc2c(ccn2Cc2ccccc2-c2ccccc2C(=O)O)c1)c1ccccc1` (stereo not shown) [Example 68, 2′-((5-((1-phenylpropyl)carbamoyl)-1H-indol-1-yl)methyl)-[1,1′-biphenyl]-2-carboxylic acid], for which, in assay [1], the IC50 was > 1000 nM. The same measure, in the same setting: to `Cc1c(C)n(Cc2ccc(-c3ccccc3C(=O)O)cc2)c2ccc(C(=O)NCc3cccc(CN)c3)cc12` [Example 82, 4′-((5-(3-(aminomethyl)benzylcarbamoyl)-2,3-dimethyl-1H-indol-1-yl)methyl)biphenyl-2-carboxylic acid] belongs > 1000 nM; to `Cc1c(C)n(Cc2ccc(-c3ccccc3C(=O)O)cc2)c2ccc(C(=O)N[C@@H](C)c3ccc(N)cc3)cc12` [Example 99, (S)-4′-((5-(1-(4-aminophenyl)ethylcarbamoyl)-2,3-dimethyl-1H-indol-1-yl)methyl)biphenyl-2-carboxylic acid], 240 nM; to `Cc1c(C)n(Cc2ccc(-c3ccccc3C(=O)O)cc2)c2ccc(C(=O)NCc3ccc(C(F)(F)F)cc3)cc12` [Example 101, 4′-((2,3-dimethyl-5-(4-(trifluoromethyl)benzylcarbamoyl)-1H-indol-1-yl)methyl)biphenyl-2-carboxylic acid], 208 nM. As to `Cc1c(C)n(Cc2ccc(-c3ccccc3C(=O)O)cc2)c2ccc(C(=O)NCc3ccc(C(F)(F)F)cc3F)cc12` [Example 167, 4′-((5-((2-fluoro-4-(trifluoromethyl)benzyl)carbamoyl)-2,3-dimethyl-1H-indol-1-yl)methyl)-[1,1′-biphenyl]-2-carboxylic acid], in assay [2], the EC50 stood at 596 nM and the activation at 10 µM amounted to 10%. Taken in the same sequence, the figures for `Cc1c(C)n(Cc2ccc(-c3ccccc3C(=O)O)cc2)c2ccc(C(=O)NCc3ccc(Cl)cc3Cl)cc12` [Example 168, 4′-((5-((2,4-dichlorobenzyl)carbamoyl)-2,3-dimethyl-1H-indol-1-yl)methyl)-[1,1′-biphenyl]-2-carboxylic acid] were 931 nM and 18%. Taken in the same sequence, the figures for `CC[C@@H](NC(=O)c1ccc2c(c1)c(C)c(C)n2Cc1ccccc1-c1cccc(C(=O)O)c1)c1ccccc1` [Example 193, (R)-2′-((2,3-dimethyl-5-((1-phenylpropyl)carbamoyl)-1H-indol-1-yl)methyl)-[1,1′-biphenyl]-3-carboxylic acid] were 191 nM and 40%. As to `CC[C@H](NC(=O)c1ccc2c(c1)c(C)c(C)n2Cc1ccccc1-c1cccc(C(=O)O)c1)c1ccccc1` [Example 194, (S)-2′-((2,3-dimethyl-5-((1-phenylpropyl)carbamoyl)-1H-indol-1-yl)methyl)-[1,1′-biphenyl]-3-carboxylic acid], in assay [2], the EC50 was found to be 793 nM and the activation at 10 µM amounted to 18%. Taken in the same sequence, the figures for `CC[C@@H](NC(=O)c1ccc2c(c1)c(C)c(C)n2Cc1ccccc1-c1ccc(C(=O)O)cc1)c1ccccc1` [Example 195, (R)-2′-((2,3-dimethyl-5-((1-phenylpropyl)carbamoyl)-1H-indol-1-yl)methyl)-[1,1′-biphenyl]-4-carboxylic acid] were 169 nM and 35%.

For the molecule `Cc1c(C)n(Cc2ccc(-c3ccccc3C(=O)O)cc2)c2ccc(C(=O)N[C@@H](C)c3cccc(OC(C)C)c3)cc12` [Example 199, (S)-4′-((5-((1-(3-isopropoxyphenyl)ethyl)carbamoyl)-2,3-dimethyl-1H-indol-1-yl)methyl)-[1,1′-biphenyl]-2-carboxylic acid], in assay [2], the EC50 was found to be 2750 nM and the activation at 10 µM worked out at 10%. For `Cc1c(C)n(Cc2ccc(-c3ccccc3C(=O)O)cc2)c2ccc(C(=O)N[C@@H](C)c3ccc(OC(C)C)cc3)cc12` [Example 201, (S)-4′-((5-((1-(4-isopropoxyphenyl)ethyl)carbamoyl)-2,3-dimethyl-1H-indol-1-yl)methyl)-[1,1′-biphenyl]-2-carboxylic acid] the same measures were 941 nM and 10%. For `Cc1c(C)n(Cc2ccc(-c3ccccc3C(=O)O)cc2)c2ccc(C(=O)N[C@H]3CCN(C(=O)OCc4ccccc4)C3)cc12` [Example 204, (S)-4′-((5-((1-((benzyloxy)carbonyl)pyrrolidin-3-yl)carbamoyl)-2,3-dimethyl-1H-indol-1-yl)methyl)-[1,1′-biphenyl]-2-carboxylic acid], the activation at 10 µM in assay [2] is 0%. In the case of `Cc1c(C)n(Cc2ccc(-c3ccccc3C(=O)O)cc2)c2ccc(C(=O)N[C@@H](C)c3ccc(Cl)c(C(F)(F)F)c3)cc12` [Example 222, (S)-4′-((5-((1-(4-chloro-3-(trifluoromethyl)phenyl)ethyl)carbamoyl)-2,3-dimethyl-1H-indol-1-yl)methyl)-[1,1′-biphenyl]-2-carboxylic acid], in assay [2], the EC50 turned out to be 193 nM and the activation at 10 µM came out at 5%.

The values above are taken from US8957093B2, “N-biphenylmethylindole modulators of PPARG” (The Scripps Research Institute, priority 2011, dated 2015).
